Assay results published in patent US7282521B2, “Anti-retroviral moronic acid derivatives” (priority 2004, dated 2007).
Where two headings read alike, the source gives them in different places.

What was measured:
MT-4 cells = assay: Cell growth inhibition (cytotoxicity) of uninfected cells; format: cell-based; details: table title: MT-4 cells; uninfected H9 cell growth; read-out: IC50 (concentration that inhibits uninfected cell growth by 50%)
[1] = system: FHR-2, an HIV-1 strain resistant to DSB (2); assay: microbe, parasite or virus in culture; format: cell-based
Source text: (§1) NL4-3 is a T-cell adapted HIV-1 strain, a wild type virus; PI—R is HIV-1M46I/L63P/V82P/I84V, an HIV-1 strain resistant to multiple protease inhibitors; and FHR-2 is an HIV-1 strain resistant to DSB (2).

[2] = system: NL4-3, a T-cell adapted HIV-1 strain, X4 wild type virus; assay: microbe, parasite or virus in culture; format: cell-based
Source text: as §1

HIV fusion = assay: Anti-HIV fusion activity (preliminary, data not shown); format: cell-based; details: preliminary results
Source text: as §1

[3] = system: PI-R, HIV-1M46I/L63P/V82P/I84V, resistant to multiple protease inhibitors; assay: microbe, parasite or virus in culture; format: cell-based
Source text: as §1

HIV in H9 lymphocyte = details: cited from earlier work
[4] = Cell growth inhibition (cytotoxicity) of uninfected cells; format: cell-based; details: human, uninfected MT-4 cells; table title: MT-4 cells; uninfected H9 cell growth; read-out: IC50 (concentration that inhibits uninfected cell growth by 50%)
[5] = MT-4 cells, DSB-resistant HIV-1 strain, — = no suppression at 5 μM, read-out: EC50, FHR-2 (concentration that inhibits viral replication by 50%)
[6] = MT-4 cells, NL4-3 wild type HIV-1 strain, read-out: EC50, NL4-3 (concentration that inhibits viral replication by 50%)
[7] = MT-4 cells, multi-protease-inhibitor resistant HIV-1 strain, read-out: EC50, PI-R (concentration that inhibits viral replication by 50%)

SMILES	IC50 (MT-4 cells) [nM]	EC50 [1, 5] [nM]	EC50 [2, 6] [nM]	anti-HIV fusion activity (HIV fusion)	EC50 [3, 7] [nM]	EC50, anti-HIV activity (HIV in H9 lymphocyte) [µg/mL]	IC50 [4] [nM]	EC50 ([3]; Human immunodeficiency virus 1, MT4, read-out: EC50, PI-R (concentration that inhibits viral replication by 50%)) [nM]	EC50 ([1]; Human immunodeficiency virus 1, MT4, read-out: EC50, FHR-2 (concentration that inhibits viral replication by 50%)) [nM]	EC50 ([2]; Human immunodeficiency virus 1, NL43, MT4, read-out: EC50, NL4-3 (concentration that inhibits viral replication by 50%)) [nM]
Cc1cn([C@H]2C[C@H](N=[N+]=[N-])[C@@H](CO)O2)c(=O)[nH]c1=O [AZT, reference compound]	> 37500	190	13	–	–	–	–	–	–	–
CC(C)C[C@H](NC(=O)[C@]12CCC(C)(C)C=C1[C@H]1CC[C@@H]3[C@@]4(C)CC[C@H](OC(=O)CC(C)(C)C(=O)O)C(C)(C)[C@@H]4CC[C@@]3(C)[C@]1(C)CC2)C(=O)O [Compound 8, N-[3β-(3′,3′-Dimethylsuccinoxy)olean-18-en-28-oyl]-L-leucine]	> 14300	130	5.7	exhibit anti-HIV fusion activity	21	–	–	–	–	–
CC1(C)C=C2[C@H]3CC[C@@H]4[C@@]5(C)CCC(=O)C(C)(C)[C@@H]5CC[C@@]4(C)[C@]3(C)CC[C@@]2(C(=O)O)CC1 [moronic acid (3), moronic acid]	–	–	–	–	–	< 0.1	–	–	–	–
CC(C)CC(CO)NC(=O)[C@]12CCC(C)(C)C=C1[C@H]1CC[C@@H]3[C@@]4(C)CC[C@H](OC(=O)CC(C)(C)C(=O)O)C(C)(C)[C@@H]4CC[C@@]3(C)[C@]1(C)CC2 (stereo partly drawn) [Compound 7, N-[3β-(3′,3′-Dimethylsuccinoxy)olean-18-en-28-oyl]-(1-hydroxy-methyl-3-methyl-butyl)-amide]	> 14600	2780	45	exhibit anti-HIV fusion activity	88	–	–	–	–	–
C=C(C)[C@@H]1CC[C@]2(C(=O)O)CC[C@]3(C)[C@H](CC[C@@H]4[C@@]5(C)CC[C@H](OC(=O)CC(C)(C)C(=O)O)C(C)(C)[C@@H]5CC[C@]43C)[C@@H]12 [DSB (2), 3-O-(3′,3′-dimethylsuccinyl)-betulinic acid, reference compound]	–	–	–	–	–	–	> 5000	430	> 5000	96
